The numbers were not newly measured in patent US20060135482A1, “Use of fosinopril to reduce cardiovascular events in disalysis patients” (priority 2002, published 2006), which cites them from elsewhere.

Where two headings read alike, the source gives them in different places.

For data set [1] the following is noted: 10 days; renal insufficiency patients.
For data set [2] the following is noted: normal liver and kidney function; hepatic clearance increases if renal function impaired.
The conditions of data set [3]: patients Clcr<30 ml/min.
For data set [4] the following is noted: blood dialysis or peritoneal dialysis patients with terminal renal insufficiency.
The conditions of data set [5]: varying degrees of renal insufficiency incl. severe (Clcr<10 ml/min); relative to normal renal function.

As for `CCC(=O)O[C@@H](O[P@](=O)(CCCCc1ccccc1)CC(=O)N1C[C@H](C2CCCCC2)C[C@H]1C(=O)O)C(C)C` [fosinopril, (2S,4S)-4-cyclohexyl-1-[2-[(R)-[[(S)-2-methyl-1-(propanoyl-oxy)propyl]oxy](4-phenylbutyl)phosphinoyl]acetyl]pyrrolidine-2-carboxylic acid], the “Accumulation on repeated administration” value in data set [1] was “accumulates less than enalapril or lisinopril”. Moreover, the Elimination route entry in data set [2] is “eliminated in equal parts via the liver and the kidneys”. Further, the “AUCd10/AUCd1 (accumulation ratio, area under the curve day 10/day 1)” value is 1.41 in data set [3] (fosinopril 10 mg/day for 10 days, comparison versus enalapril, p=0.02) and 1.3 in data set [3] (fosinopril 10 mg/day for 10 days, comparison versus lisinopril, p<0.001). The Pharmacokinetic parameters result in data set [4] is on record as “remain comparable with those observed in patients with mild, moderate or severe renal insufficiency”. For the same molecule, the “Total clearance of the medicament” value in data set [5] is “about half of that observed in an individual with normal renal function”.
In the case of `CCOC(=O)[C@H](CCc1ccccc1)N[C@@H](C)C(=O)N1CCC[C@H]1C(=O)O` [enalapril], the “AUCd10/AUCd1 (accumulation ratio, area under the curve day 10/day 1)” value in data set [3] (enalapril 2.5 mg/day for 10 days, p=0.02 versus fosinopril) was 1.96.
Regarding `NCCCC[C@H](N[C@@H](CCc1ccccc1)C(=O)O)C(=O)N1CCC[C@H]1C(=O)O` [lisinopril], the “AUCd10/AUCd1 (accumulation ratio, area under the curve day 10/day 1)” value in data set [3] (lisinopril 5 mg/day for 10 days, p<0.001 versus fosinopril) was 2.57.
